In ChEMBL document CHEMBL5034019, “Discovery of the Next-Generation Pan-TRK Kinase Inhibitors for the Treatment of Cancer” (J Med Chem, 2021):

Columns and labels:
[1] = Apparent permeability across apical to basolateral side in human Caco-2 cells incubated for 2 hrs by LC-MS/MS analysis; assay type: ADME, cell-based
[2] = Metabolic stability in human liver microsomes assessed as intrinsic clearance at 1 uM by LC-MS/MS analysis; assay type: ADME, Microsome; conditions: read-out: CLH
[3] = Metabolic stability in rat liver microsomes assessed as intrinsic clearance at 1 uM by LC-MS/MS analysis; assay type: ADME, Microsome; conditions: read-out: CLH
[4] = Metabolic stability in mouse liver microsomes assessed as intrinsic clearance at 1 uM by LC-MS/MS analysis; assay type: ADME, Microsome; conditions: read-out: CLH
[5] = Metabolic stability in dog liver microsomes assessed as intrinsic clearance at 1 uM by LC-MS/MS analysis; assay type: ADME, Canis lupus familiaris, Microsome; conditions: read-out: CLH
[6] = Protein binding in human plasma assessed as unbound fraction by LC-MS/MS based equilibrium dialysis method; assay type: ADME, cell-free
[7] = Protein binding in rat plasma assessed as unbound fraction by LC-MS/MS based equilibrium dialysis method; assay type: ADME, cell-free
[8] = Protein binding in mouse plasma assessed as unbound fraction by LC-MS/MS based equilibrium dialysis method; assay type: ADME, cell-free
[9] = Protein binding in dog plasma assessed as unbound fraction by LC-MS/MS based equilibrium dialysis method; assay type: ADME, cell-free, Canis lupus familiaris
Cytochrome P450 1A2 = target: T1, Cytochrome P450 1A2 (Homo sapiens, UniProt P05177); experiment: Inhibition of CYP1A2 in human pooled liver microsomes using phenacetin as substrate in presence of NADPH by LC-MS/MS analysis; assay type: ADME
T1 sequence (P05177 whole entry): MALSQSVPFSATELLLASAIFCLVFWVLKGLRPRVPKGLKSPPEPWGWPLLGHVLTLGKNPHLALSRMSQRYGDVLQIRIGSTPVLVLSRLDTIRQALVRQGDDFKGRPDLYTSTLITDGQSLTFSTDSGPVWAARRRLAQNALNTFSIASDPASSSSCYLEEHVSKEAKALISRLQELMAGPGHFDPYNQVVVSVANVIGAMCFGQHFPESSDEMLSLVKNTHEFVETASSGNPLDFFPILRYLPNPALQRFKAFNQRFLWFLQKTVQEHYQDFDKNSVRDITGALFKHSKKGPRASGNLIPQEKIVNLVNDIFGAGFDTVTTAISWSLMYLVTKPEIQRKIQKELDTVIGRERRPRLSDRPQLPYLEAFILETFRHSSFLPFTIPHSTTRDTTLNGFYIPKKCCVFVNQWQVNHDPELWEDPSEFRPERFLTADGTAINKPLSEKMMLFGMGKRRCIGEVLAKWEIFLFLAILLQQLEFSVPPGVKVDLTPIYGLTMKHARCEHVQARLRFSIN

Cytochrome P450 2C9 = Cytochrome P450 2C9 (Homo sapiens, UniProt P11712); experiment: Inhibition of CYP2C9 in human pooled liver microsomes using diclofenac as substrate in presence of NADPH by LC-MS/MS analysis; assay type: ADME
Cytochrome P450 2C9, sequence (P11712 whole entry): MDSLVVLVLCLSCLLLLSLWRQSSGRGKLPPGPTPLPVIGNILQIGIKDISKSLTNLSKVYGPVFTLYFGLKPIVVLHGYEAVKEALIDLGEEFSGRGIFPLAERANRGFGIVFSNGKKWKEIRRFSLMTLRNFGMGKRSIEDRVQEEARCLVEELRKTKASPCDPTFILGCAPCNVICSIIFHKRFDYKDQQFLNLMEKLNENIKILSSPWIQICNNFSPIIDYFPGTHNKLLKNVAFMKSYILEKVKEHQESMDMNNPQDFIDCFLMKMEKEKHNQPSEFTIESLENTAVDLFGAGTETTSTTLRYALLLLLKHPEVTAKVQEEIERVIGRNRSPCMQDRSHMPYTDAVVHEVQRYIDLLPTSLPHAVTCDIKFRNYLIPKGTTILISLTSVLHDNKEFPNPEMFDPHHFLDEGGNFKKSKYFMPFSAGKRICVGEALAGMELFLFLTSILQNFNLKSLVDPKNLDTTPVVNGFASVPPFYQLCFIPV

Cytochrome P450 2C19 = Cytochrome P450 2C19 (Homo sapiens, UniProt P33261); experiment: Inhibition of CYP2C19 in human pooled liver microsomes using S-mephenytoin as substrate in presence of NADPH by LC-MS/MS analysis; assay type: ADME
Cytochrome P450 2C19, sequence (P33261 whole entry): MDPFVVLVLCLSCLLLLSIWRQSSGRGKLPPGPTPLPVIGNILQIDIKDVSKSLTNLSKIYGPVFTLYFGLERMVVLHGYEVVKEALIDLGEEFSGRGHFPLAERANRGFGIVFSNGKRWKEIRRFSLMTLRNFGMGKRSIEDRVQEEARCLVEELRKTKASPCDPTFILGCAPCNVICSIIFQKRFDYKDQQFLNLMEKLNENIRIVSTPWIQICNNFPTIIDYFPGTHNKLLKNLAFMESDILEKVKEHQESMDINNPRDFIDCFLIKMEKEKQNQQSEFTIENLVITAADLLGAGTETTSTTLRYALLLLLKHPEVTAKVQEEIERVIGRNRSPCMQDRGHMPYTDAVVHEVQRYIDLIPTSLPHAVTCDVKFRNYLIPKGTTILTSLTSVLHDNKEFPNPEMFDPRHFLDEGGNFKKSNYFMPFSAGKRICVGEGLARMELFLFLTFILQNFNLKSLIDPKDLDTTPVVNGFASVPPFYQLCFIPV

Cytochrome P450 2D6 = Cytochrome P450 2D6 (Homo sapiens, UniProt P10635); experiment: Inhibition of CYP2D6 in human pooled liver microsomes using dextromethorphan as substrate in presence of NADPH by LC-MS/MS analysis; assay type: ADME
Cytochrome P450 2D6, sequence (P10635 whole entry): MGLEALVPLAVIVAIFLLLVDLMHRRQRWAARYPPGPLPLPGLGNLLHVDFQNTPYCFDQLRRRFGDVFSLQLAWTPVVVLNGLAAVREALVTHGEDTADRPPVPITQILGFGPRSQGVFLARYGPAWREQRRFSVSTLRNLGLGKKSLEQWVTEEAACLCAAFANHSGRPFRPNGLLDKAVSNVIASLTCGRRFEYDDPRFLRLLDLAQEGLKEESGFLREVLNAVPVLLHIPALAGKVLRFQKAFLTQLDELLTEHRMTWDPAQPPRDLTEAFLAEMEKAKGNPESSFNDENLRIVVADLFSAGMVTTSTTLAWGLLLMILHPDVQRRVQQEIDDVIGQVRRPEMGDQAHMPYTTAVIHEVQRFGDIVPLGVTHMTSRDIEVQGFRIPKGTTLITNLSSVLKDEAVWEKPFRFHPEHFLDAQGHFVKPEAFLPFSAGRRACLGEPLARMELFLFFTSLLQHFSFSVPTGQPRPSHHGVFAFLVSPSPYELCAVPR

Cytochrome P450 3A4 = Cytochrome P450 3A4 (Homo sapiens, UniProt P08684); experiment: Inhibition of CYP3A4 in human pooled liver microsomes using midazolam and testosterone as substrate in presence of NADPH by LC-MS/MS analysis; assay type: ADME
Cytochrome P450 3A4, sequence (P08684 whole entry, the tested form may be a part): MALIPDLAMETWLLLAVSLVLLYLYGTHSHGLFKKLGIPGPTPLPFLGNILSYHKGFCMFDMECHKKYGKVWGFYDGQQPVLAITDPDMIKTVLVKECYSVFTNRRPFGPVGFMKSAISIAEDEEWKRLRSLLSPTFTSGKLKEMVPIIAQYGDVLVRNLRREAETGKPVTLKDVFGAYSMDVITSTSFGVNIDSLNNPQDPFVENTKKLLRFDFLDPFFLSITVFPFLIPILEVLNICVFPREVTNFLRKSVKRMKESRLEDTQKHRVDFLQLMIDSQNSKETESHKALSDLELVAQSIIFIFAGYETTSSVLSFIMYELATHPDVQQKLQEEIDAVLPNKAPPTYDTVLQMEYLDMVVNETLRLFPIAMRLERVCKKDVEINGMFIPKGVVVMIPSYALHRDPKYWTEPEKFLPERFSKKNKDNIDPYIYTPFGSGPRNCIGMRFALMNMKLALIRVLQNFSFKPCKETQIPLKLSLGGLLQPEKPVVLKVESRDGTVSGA

[10] = target: Focal adhesion kinase 1 (Homo sapiens) (UniProt Q05397); experiment: Inhibition of recombinant human FAK (411 to 686 residues) assessed as residual activity at 0.5 uM using EEEEYEEEEEEYYIIEEEEEEYEEEEEEYYEEEEEEKKKK as substrate at 40 mins in presence of [gamma-33ATP] by scintillation counting based radiometry assay relative to control
Focal adhesion kinase 1 (Homo sapiens), sequence (Q05397 2-1052 limits assumed): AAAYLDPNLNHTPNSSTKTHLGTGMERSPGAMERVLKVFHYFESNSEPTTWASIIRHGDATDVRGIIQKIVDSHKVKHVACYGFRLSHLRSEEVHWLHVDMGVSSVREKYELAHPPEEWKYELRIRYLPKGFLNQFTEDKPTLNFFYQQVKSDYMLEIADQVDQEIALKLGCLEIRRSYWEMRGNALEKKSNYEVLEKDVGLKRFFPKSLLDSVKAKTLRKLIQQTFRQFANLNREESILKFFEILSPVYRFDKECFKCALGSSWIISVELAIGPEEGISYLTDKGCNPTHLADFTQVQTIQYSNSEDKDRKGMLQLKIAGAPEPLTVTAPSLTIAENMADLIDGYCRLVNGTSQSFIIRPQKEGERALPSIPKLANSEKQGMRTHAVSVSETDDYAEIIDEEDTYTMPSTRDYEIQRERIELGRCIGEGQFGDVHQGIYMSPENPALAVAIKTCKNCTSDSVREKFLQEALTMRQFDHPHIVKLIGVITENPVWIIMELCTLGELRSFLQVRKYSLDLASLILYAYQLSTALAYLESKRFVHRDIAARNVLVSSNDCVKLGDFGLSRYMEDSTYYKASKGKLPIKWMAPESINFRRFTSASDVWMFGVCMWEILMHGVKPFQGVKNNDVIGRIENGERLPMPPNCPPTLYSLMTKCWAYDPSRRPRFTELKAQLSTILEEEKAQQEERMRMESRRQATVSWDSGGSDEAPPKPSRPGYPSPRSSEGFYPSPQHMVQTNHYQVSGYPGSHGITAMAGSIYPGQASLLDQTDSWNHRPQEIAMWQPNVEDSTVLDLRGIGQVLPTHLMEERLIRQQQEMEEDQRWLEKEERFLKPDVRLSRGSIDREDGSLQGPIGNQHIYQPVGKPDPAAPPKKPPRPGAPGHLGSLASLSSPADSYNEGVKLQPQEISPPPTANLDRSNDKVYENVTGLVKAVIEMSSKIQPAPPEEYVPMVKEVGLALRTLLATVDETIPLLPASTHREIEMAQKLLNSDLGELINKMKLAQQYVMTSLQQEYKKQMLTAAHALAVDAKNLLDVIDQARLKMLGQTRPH

[11] = test system: Hepatocyte growth factor receptor (Homo sapiens), P08581 [M1268T]; experiment: Inhibition of recombinant human Met M1268T mutant (974 to end residues) assessed as residual activity at 0.5 uM using KKKGQEEEYVFIE as substrate incubated for 40 mins in presence of [gamma-33P]-ATP by scintillation counting method relative to control
[12] = test system: Proto-oncogene tyrosine-protein kinase receptor Ret (Homo sapiens), P07949 [V804L]; experiment: Inhibition of recombinant human Ret V804L mutant (658 to end residues) assessed as residual activity at 0.5 uM using KKKSPGEYVNIEFG as substrate incubated for 40 mins in presence of [gamma33P]ATP by scintillation counting based radiometry assay relative to control
[13] = target: Proto-oncogene tyrosine-protein kinase ROS (Homo sapiens, UniProt P08922); experiment: Inhibition of recombinant human Ros1 (1883 to end residues) assessed as residual activity at 0.5 uM using KKKSPGEYVNIEFG as substrate measured after 40 mins in presence of [gamma33P]ATP by scintillation counting method relative to control
[14] = target: Proto-oncogene tyrosine-protein kinase Src (Homo sapiens) (UniProt P12931); experiment: Inhibition of human Src (1 to 530 residues) assessed as residual activity at 0.5 uM using GGEEEEYFELVKKKK as substrate measured after 40 mins in presence of [gamma33P]ATP by scintillation counting method relative to control
Proto-oncogene tyrosine-protein kinase Src (Homo sapiens), sequence (P12931 2-536 limits assumed): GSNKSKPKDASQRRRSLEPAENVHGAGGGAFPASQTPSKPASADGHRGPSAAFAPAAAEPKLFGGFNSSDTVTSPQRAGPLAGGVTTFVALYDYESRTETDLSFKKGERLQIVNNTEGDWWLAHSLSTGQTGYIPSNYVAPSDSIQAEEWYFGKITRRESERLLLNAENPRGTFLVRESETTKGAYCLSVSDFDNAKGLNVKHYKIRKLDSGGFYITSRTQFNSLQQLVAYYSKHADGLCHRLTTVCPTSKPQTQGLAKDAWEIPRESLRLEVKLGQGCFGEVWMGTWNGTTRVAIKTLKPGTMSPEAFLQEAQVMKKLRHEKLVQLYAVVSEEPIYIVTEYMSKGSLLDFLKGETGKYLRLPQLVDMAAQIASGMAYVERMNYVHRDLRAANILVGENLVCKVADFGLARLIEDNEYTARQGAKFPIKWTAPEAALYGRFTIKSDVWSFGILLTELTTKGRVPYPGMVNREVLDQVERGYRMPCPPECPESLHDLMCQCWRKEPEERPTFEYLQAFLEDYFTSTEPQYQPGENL

[15] = C0 in male Sprague-Dawley rat at 2 mg/kg, iv measured up to 24 hrs by LC/MS/MS analysis; assay type: ADME, organism-based; conditions: in vivo
BaF3 [16] = experiment: Cytotoxicity against mouse BaF3 cells transfected with TrKA G595R mutant assessed as reduction in cell viability by MTT assay; assay type: functional, cell-based
BaF3 [17] = experiment: Cytotoxicity against mouse BaF3 cells transfected with TrKA F589L mutant assessed as reduction in cell viability by MTT assay; assay type: functional, cell-based
BaF3 [18] = experiment: Cytotoxicity against mouse BaF3 cells transfected with TrKA G667A mutant assessed as reduction in cell viability by MTT assay; assay type: functional, cell-based
BaF3 [19] = experiment: Cytotoxicity against mouse BaF3 cells transfected with TrKA G623R mutant assessed as reduction in cell viability by MTT assay; assay type: functional, cell-based
BaF3 [20] = experiment: Cytotoxicity against mouse BaF3 cells transfected with SLC34A2-Ros1 assessed as reduction in cell viability by MTT assay; assay type: functional, cell-based
[21] = target: High affinity nerve growth factor receptor (Homo sapiens, UniProt P04629)
High affinity nerve growth factor receptor, sequence (P04629 whole entry): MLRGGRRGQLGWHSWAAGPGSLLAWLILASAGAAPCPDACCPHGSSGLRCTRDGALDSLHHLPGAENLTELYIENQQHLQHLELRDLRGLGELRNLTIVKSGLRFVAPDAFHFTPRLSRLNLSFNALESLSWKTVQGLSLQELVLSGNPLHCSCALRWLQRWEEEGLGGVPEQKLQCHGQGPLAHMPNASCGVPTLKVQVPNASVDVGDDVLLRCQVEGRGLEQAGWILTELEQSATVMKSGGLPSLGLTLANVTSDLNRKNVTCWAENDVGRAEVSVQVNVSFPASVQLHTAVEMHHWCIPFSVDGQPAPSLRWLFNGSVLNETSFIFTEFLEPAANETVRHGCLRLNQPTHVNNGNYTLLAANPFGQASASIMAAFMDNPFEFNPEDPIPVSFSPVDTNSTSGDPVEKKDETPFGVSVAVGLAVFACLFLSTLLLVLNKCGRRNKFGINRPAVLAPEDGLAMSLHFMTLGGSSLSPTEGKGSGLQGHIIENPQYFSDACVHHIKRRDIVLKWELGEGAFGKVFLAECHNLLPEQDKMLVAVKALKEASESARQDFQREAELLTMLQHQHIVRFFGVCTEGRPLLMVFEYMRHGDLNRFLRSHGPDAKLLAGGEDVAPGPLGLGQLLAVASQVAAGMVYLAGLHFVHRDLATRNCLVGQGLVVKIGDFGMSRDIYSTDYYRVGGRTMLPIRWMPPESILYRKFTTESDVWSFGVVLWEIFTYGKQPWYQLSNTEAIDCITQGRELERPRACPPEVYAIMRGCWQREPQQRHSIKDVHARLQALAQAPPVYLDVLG
Description: Inhibition of TrKA (unknown origin) incubated for 120 mins in presence of 33P-ATP

BaF3 [22] = experiment: cells; conditions: Mus musculus
Description: Cytotoxicity against mouse BaF3 cells transfected with TrKA assessed as reduction in cell viability by MTT assay

in vitro = conditions: human, Caco-2
Description: Efflux ratio of apparent permeability from basolateral to apical over apical to basolateral side in human Caco2 cells incubated for 2 hrs by LC-MS/MS analysis

[23] = Cmax in Sprague-Dawley rat at 10 mg/kg, po measured up to 24 hrs by LC-MS/MS analysis; assay type: ADME, organism-based; design: route oral, dose 10 mg/kg, time <=24; conditions: in vivo
[24] = Tmax in Sprague-Dawley rat at 10 mg/kg, po measured up to 24 hrs by LC-MS analysis; assay type: ADME, organism-based; conditions: in vivo

SMILES	Papp A→B at 2 h [1] [×10⁻⁶ cm/s]	CLint scaled at 1 µM [2] [mL/min/kg]	CLint scaled at 1 µM [3] [mL/min/kg]	CLint scaled at 1 µM [4] [mL/min/kg]	CLint scaled at 1 µM [5] [mL/min/kg]	fraction unbound [6]	fraction unbound [7]	fraction unbound [8]	fraction unbound [9]	IC50 (Cytochrome P450 1A2) [nM]	IC50 (Cytochrome P450 2C9) [nM]	IC50 (Cytochrome P450 2C19) [nM]	IC50 (Cytochrome P450 2D6) [nM]	IC50 (Cytochrome P450 3A4) [nM]	IC50 (BaF3 [16]) [nM]	IC50 (BaF3 [17]) [nM]	IC50 (BaF3 [18]) [nM]	IC50 (BaF3 [19]) [nM]	IC50 (BaF3 [20]) [nM]	IC50 (BaF3 [22]) [nM]	also measured
O=C1NC2(CC2)COc2ncc(F)cc2[C@H]2COCCN2c2ccn3ncc1c3n2	12	17.7	28.8	1500	< 10.7	0.16	0.12	0.11	0.21	> 100000	18100	89000	> 100000	> 50000	7.7	4.9	0.8	2.7	2.3	0.6	Activity [10]: 72%; Activity [11]: 86%; Activity [12]: 59%; Activity [13]: 16%; Activity [14]: 33%; C0 at 24 h [15]: 4.12 µM; IC50 [21]: 2.4 nM; efflux ratio at 2 h (in vitro): 2.8
C[C@@H]1CCc2ncc(F)cc2[C@H]2CCCN2c2ccn3ncc(c3n2)C(=O)N1 [SELITRECTINIB]	8.4	76	92	1350	38	0.34	0.03	0.02	0.2	> 50000	> 50000	> 50000	> 50000	> 50000	6.8	25.4	24.4	2.7	36.7	4.9	Cmax [23]: 12.7 µM; Tmax [24]: 24 min
